PMC5515982, “Hair analysis for the biomonitoring of pesticide exposure: comparison with blood and urine in a rat model” (Archives of Toxicology, 2016)
Where “and” joins values, the source holds several entries; their conditions need not be identical. Identical values can stand only once.

Experiments:
[1] = Concentration of pesticides and metabolites in plasma of rats after 90-day gavage exposure to a pesticide mixture; format: in vivo, rat; settings: for Slope (linear fit), concentration in plasma versus level of exposure: exposure expressed as mg/kg per day, concentration as ng/mL, detected values only
Protocol: (§1) Eight rats were randomly assigned to each of the experimental groups. A low-calorie water gel that contained the pesticides was administered via gavage to these rats three times per week for 90 days. The doses of the pesticides mixture used for exposure were 4, 10, 20, 40, 100, 200, and 400 µg/kg of body weight. The exposure range was set as follows: The lowest dose was the lowest level allowing the detection of pesticides in hair after a 90-day exposure, based on preliminary experiments not detailed here. Testing lower levels would not have been relevant because some compounds would not be detected anymore (analytical limitation). In addition, for some other compounds, no differences were detected in the current experiment between the lowest level of exposure and the background exposure of the controls. The highest dose was set according to toxicity of compounds, which corresponded to 1/20 of the lowest LD50 (carbofuran). The animals were weighed before each administration in order to adapt the amount of pesticide-containing mixture to the animals’ weight.
(§2) The animals were shaved before the experiment began to ensure that the hair collected at the end of the study accurately reflected the 90-day period of exposure. White and black hairs were collected separately, placed in aluminum foil, and stored at −20 °C until analysis. Blood was collected in EDTA tube from the tail vein, 3 h after oral administration on Day 90. Each sampling (500–750 µL) was immediately centrifuged at 5000×g for 3 min at room temperature, and plasma was separated and stored at −80 °C before analysis. For urine collection, the rats were placed in individual metabolic cages (Type 304 stainless steel, Techniplast, Zwaag, Netherlands) immediately after gavage for 24 h (from Day 88 to Day 89). The urine was collected in refrigerated tubes over a 24-h period and was weighed before storage at −20 °C.
(§3) Depending on the compounds, only parent pesticides, only metabolites, or both parent and metabolites were analyzed in the biological matrices. The chemicals were analyzed as previously described (Chata et al. [2016]; Hardy et al. [2015]). Despite the different nature of the biological matrices analyzed (liquid vs. solid), method protocols were developed to ensure similarity so they could be reliably compared to the information obtained from each matrix, thereby ensuring that differences were not likely attributable to analytical bias. […] Because analytical background noise was absent from the chromatograms because tandem mass spectrometry was used, the approaches based on background noise for determining the limit of detection (LOD) were not applicable. The LOD was therefore determined as the lowest concentration that was detected in the samples analyzed during this study. Selectivity was ensured by analyte retention time and by the quantification transition to confirmation transition ratio that had to be lower than the 20% difference from the ratio obtained with standard compounds. The LOD ranged from 0.02 pg/mg for β-endosulfan to 2.7 pg/mg for dichlorodiphenyltrichloroethane (p,p′-DDT) in hair, from 0.2 pg/mL for trifluralin to 13.6 ng/mL for 2-isopropoxyphenol (2-IPP) in urine, and from 2.4 pg/mL for β-endosulfan to 679 pg/mL for p,p′-DDT in plasma. Because the analysis of parent pesticides and metabolites was conducted on the same hair sample, the addition of parent organophosphate isotope-labeled analog standards was not possible because their degradation into non-labeled dialkyl phosphate (DAP) during the analytical procedure would have hindered the analysis of DAP due to exposure. In hair, only organophosphate metabolites (not parents) were therefore quantified, and only qualitative results were obtained for parents.
(§4) The association between the level of exposure and the analyte concentration in the matrix (i.e., hair, urine, and plasma) was assessed by the Pearson product-moment correlation coefficient (R Pearson). […]

[2] = ref Timchalk et al. [2007], cited from earlier work
[3] = Concentration of pesticides and metabolites in hair of rats after 90-day gavage exposure to a pesticide mixture; format: in vivo, rat; settings: exposure expressed as mg/kg per day, concentration as pg/mg, detected values only
Protocol: as §1, §2, §3, §4

[4] = Concentration of pesticides and metabolites in 24-h urine of rats after 90-day gavage exposure to a pesticide mixture; format: in vivo, rat; settings: for Slope (linear fit), concentration in urine versus level of exposure: exposure expressed as mg/kg per day, concentration as ng/mL, detected values only
Protocol: as §1, §2, §3, §4

[5] = Influence of hair pigmentation: concentration in white hair versus pigmented hair; format: in vivo, rat; settings: slope close to 1 = poor influence of pigmentation
Protocol: as §2
The influence of hair pigmentation on pesticide incorporation was assessed by comparing the concentration detected in white hair versus pigmented hair which were collected and analyzed separately from each animal. […] For the majority of the chemicals tested during the current study, pigmentation seemed to have a very limited effect on the concentration in hair, and only few compounds seemed to be pigmentation sensitive.

CCOP(=S)(OCC)Oc1nc(Cl)c(Cl)cc1Cl [Chlorpyrifos]
Mean concentration in plasma ([1]; control group): 0.15 ± 0.01 ng/mL
Mean concentration in plasma ([1]; most exposed group): 0.41 ± 0.09 ng/mL
Slope (linear fit), concentration in plasma versus level of exposure [1]: 1.24
Metabolization of the parent compound [2]: 0.2 h

CCOP(=O)(O)OCC [DEP, diethyl phosphate]
Slope (linear fit), concentration in hair versus level of exposure [3]: 4.54
Slope (linear fit), concentration in urine versus level of exposure [4]: 2.0 E + 06
Slope, concentration in white hair versus pigmented hair [5]: 0.892
Half-life for α-phase in rat blood ([2]; after oral dosing of chlorpyrifos): 12 min

Cl[C@H]1[C@H](Cl)[C@@H](Cl)[C@H](Cl)[C@@H](Cl)[C@@H]1Cl [β-HCH, β-hexachlorocyclohexane]
Slope (linear fit), concentration in hair versus level of exposure [3]: 612 and 612.6
Slope (linear fit), concentration in urine versus level of exposure [4]: 6 297
Slope (linear fit), concentration in plasma versus level of exposure [1]: 199
Slope, concentration in white hair versus pigmented hair [5]: 1.021

Cl[C@H]1[C@H](Cl)[C@@H](Cl)[C@@H](Cl)[C@H](Cl)[C@H]1Cl [γ-HCH, γ-hexachlorocyclohexane]
Slope (linear fit), concentration in hair versus level of exposure [3]: 119.8
Concentration in urine, single point out of scale ([4]; dosage of 200 µg/kg, one animal, not presented in Fig. 1): 9 ng/mL
Slope (linear fit), concentration in urine versus level of exposure [4]: 5 715
Slope (linear fit), concentration in plasma versus level of exposure [1]: 47.2
Slope, concentration in white hair versus pigmented hair [5]: 0.969
